From ChEMBL document CHEMBL3879904, “Selective sphingosine 1 phosphate receptor modulators and methods of chiral synthesis” (2013)

Legend:
[1] = Toxicity in Sprague-Dawley rat assessed as dose required to produce 10% increase in lung to terminal body weight ratio administered orally via gavage for 5 to 14 days measured 24 hrs post last dose; details: in vivo, po
[2] = tested on: Rattus norvegicus; test: Antiinflammatory activity in Sprague-Dawley rat assessed as dose required to produce 50% lymphopenia administered orally via gavage for 3 to 5 days measured 24 hrs post last dose; type: functional
[3] = Therapeutic index, ratio of dose required to produce 10% increase in lung to terminal body weight ratio administered for 14 days to dose required to produce 50% lymphopenia in Sprague-Dawley rat; details: in vivo, read-out: TI
[4] = target: Sphingosine 1-phosphate receptor 1 (Homo sapiens, UniProt P21453); test: Agonist activity at human S1P1 expressed in CRE-bla CHOK1 cells assessed as inhibition of forskolin-induced cAMP formation preincubated for 4 hrs followed by FRET-based beta-lactamase fluorescent substrate addition measured after 2 hrs; type: functional, cell-based, CHO-K1
[5] = tested on: Mus musculus; test: Antiinflammatory activity in Influenza A virus (A/WSN/33) infected C57Bl/6 mouse model assessed as suppression of inflammatory cell infiltration into lungs at 0.5 mg/kg administered intratracheally 1 hr post viral infection measured after 48 hrs relative to control; type: functional; details: C57Bl/6, inhaled or nasal
[6] = Oral bioavailability in Sprague-Dawley rat at 2 mg/kg administered via gavage by HPLC-LC/MS/MS method; type: ADME, organism-based; details: in vivo
[7] = tested on: Mus musculus; test: Antiinflammatory activity in C57BL6 mouse assessed as induction of lymphopenia by measuring CD4 or CD8-positive T cell levels at 1 mg/kg, po administered via gavage measured over 24 hrs by FACS analysis relative to control; type: functional

Sphingosine 1-phosphate receptor 1, sequence (P21453 whole entry): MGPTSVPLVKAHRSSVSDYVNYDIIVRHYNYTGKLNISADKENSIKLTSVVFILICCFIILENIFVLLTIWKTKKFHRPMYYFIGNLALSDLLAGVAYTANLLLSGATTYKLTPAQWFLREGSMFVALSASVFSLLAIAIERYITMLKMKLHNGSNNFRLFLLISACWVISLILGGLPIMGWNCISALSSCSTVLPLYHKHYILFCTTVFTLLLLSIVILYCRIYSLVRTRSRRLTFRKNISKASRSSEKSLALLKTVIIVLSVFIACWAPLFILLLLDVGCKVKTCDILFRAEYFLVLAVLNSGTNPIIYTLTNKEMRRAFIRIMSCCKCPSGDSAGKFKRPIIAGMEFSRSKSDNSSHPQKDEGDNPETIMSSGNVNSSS

Compound	Activity [1] [mg/kg]	Activity [2] [mg/kg]	further results
CC(C)Oc1ccc(-c2nc(-c3cccc4c3CC[C@@H]4NC(=O)N3CC(O)C3)no2)cc1C#N	11.3	2	
CC(C)Oc1ccc(-c2nc(-c3cccc4c3CC[C@H]4NS(=O)(=O)CCO)no2)cc1C#N	1.1	0.07	
CC(C)Oc1ccc(-c2nc(-c3cccc4c3CC[C@@H]4NS(=O)(=O)CCO)no2)cc1C#N	5	0.5	
CC(C)Oc1ccc(-c2nc(-c3cccc4c3CC[C@@H]4N)no2)cc1C#N	2	0.1	
CC(C)Oc1ccc(-c2nc(-c3cccc4c3CC[C@H]4N)no2)cc1C#N.Cl	0.2	0.1	selectivity ratio at 336 h [3]: 2
CC(C)Oc1ccc(-c2nc(-c3cccc4c3CC[C@@H]4NC(=O)N(C)C)no2)cc1C#N			EC50 [4]: 0.05 to 0.5 nM
CC(C)Oc1ccc(-c2nc(-c3cccc4c3CC[C@H]4NC(=O)N3CC(O)C3)no2)cc1C#N	21.3	0.9	
CC(C)Oc1ccc(-c2nc(-c3cccc4c3CC[C@H]4NCC(=O)N(C)C)no2)cc1C#N.Cl	5.5	0.4	
CC(C)Oc1ccc(-c2nc(-c3cccc4c3CC[C@@H]4NCC(=O)N(C)C)no2)cc1C#N	0.3	0.3	
CC(C)Oc1ccc(-c2nc(-c3cccc4c3CC[C@H]4NCC(=O)N3CCOCC3)no2)cc1C#N			EC50 [4]: 0.05 to 0.5 nM
COCCS(=O)(=O)N[C@H]1CCc2c(-c3noc(-c4ccc(OC(C)C)c(C#N)c4)n3)cccc21	5	0.25	
COCCS(=O)(=O)N[C@@H]1CCc2c(-c3noc(-c4ccc(OC(C)C)c(C#N)c4)n3)cccc21	2.1	0.07	
CC(C)Oc1ccc(-c2nc(-c3cccc4c3CC[C@H]4NC(=O)c3ccc(Br)cc3)no2)cc1C#N			EC50 [4]: > 5 nM
CC(C)Oc1ccc(-c2nc(-c3cccc4c3CC[C@H]4NCCO)no2)cc1C#N	2.8	0.15	inhibition in vivo at 0.5 mg/kg [5]: 40%
CCOc1ccc(-c2nc(-c3cccc4c3CCC4NCCO)no2)cc1OCC (racemic)			bioavailability [6]: 21%; AUEC [7]: 116%
CC(C)Oc1ccc(-c2nc(-c3cccc4c3CC[C@@H]4NCCO)no2)cc1C#N [OZANIMOD]	2.7	0.15	
